Holding throughout (format): in vivo
For test [1], the system named is Barnyard grass. As to the kind of experiment: commercial field application by air in Arkansas, half a weedy rice field (Example 8). As to conditions: only propanil (Super Wham) at 4 pounds; 7 days after application.
The test system of test [2] is Sprangletop. As to the kind of experiment: small plot test in Arkansas, weedy rice plot (Example 7). Conditions: propanil applied alone, all rates (5, 4, 3 pounds/acre); 12 days after application; 1 to 6 inch Sprangletop. The text has this:
(§1) The chemical rates in pounds/acre were:
(§2) The following observations were made 12 days after application.

In test [3] the test system is broadleaf weeds and sedges. The description is as above. As to conditions: 12 days after application.
Description: as §1, §2

The subject of test [4] is barnyard grass and Sprangletop (two grass species). The test is described as above. As to conditions: cyhalofop alone, high labeled rate 0.279 pounds/acre; 12 days after application.
Description: as §1, §2

Test [5] relates to broadleaf weeds and sedges. Kind of test: small plot test in Arkansas, weedy rice plot (Example 1). Conditions: Clincher SF alone, 15 fluid ounces/acre (0.279 pounds ai/acre). The source says:
(§3) Note that the label recommended rate for Clincher® (cyhalofop) SF for controlling grasses in the 2-3 leaf stage is 13.5 fluid ounces/acre (0.251 pounds cyhalofop/acre).

Test [6] concerns grasses. Described as above. Conditions: Clincher SF alone, 15 fluid ounces/acre (0.279 pounds ai/acre); 2-3 leaf barnyard grass.
Description: as §3

For `CCC(=O)Nc1ccc(Cl)c(Cl)c1` [propanil], the barnyard grass control entry in test [1] is “poor barnyard grass control”. Moreover, the Sprangletop control entry in test [2] is given as “lack of Sprangletop control”. In addition, the “broadleaf and sedge control” value in test [3] (all rates of propanil applied (5, 4, 3 pounds/acre)) is “excellent broadleaf and sedge control”.

Consider `C[C@@H](Oc1ccc(Oc2ccc(C#N)cc2F)cc1)C(=O)O` [cyhalofop], for which the “controlling broadleaf weeds and sedges” value in test [3] (cyhalofop alone, high labeled rate 0.279 pounds/acre) is “weakness in controlling broadleaf weeds and sedges”. In addition, the grass control entry in test [4] is recorded as “excellent grass control”. Besides, the “control of the broadleaf weeds and sedges present at the time of application” value in test [5] worked out at 0%. The “control of the grasses” value in test [6] is given as “controlled the grasses”.

Source of the values: patent US8211831B2, “Method to use a synergistic composition” (Riceco, LLC, priority 2005, dated 2012).
